Legend:
KRas G12D mutant = assay: Ras GTP Binding Domain Inhibition Assay (Ras Superfamily Assay); details: for KRas G12D mutant + SOS: % inh.: with SOS; for KRas G12D mutant: % inh.: without SOS
Summary of the method: (§1)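 His-tagged GTPases immobilised on nickel-coated plates, pre-incubated with compound (20 μM single point, or serial dilution for IC50) 3 h at room temperature, with or without 10-30 μg/mL Sos (residues 556-1049) in the final hour. Bound Cy3- or Cy5-GTP (100 nM, 45 min) measured by fluorescence after washing.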

Rac-1 = molecular target: T1, Rac-1 (Homo sapiens, UniProt P63000); assay: as above; details: read-out: Rac-1: % inh.
T1 construct: made in house
Summary of the method: as §1

KRas wild type = assay: as above; details: for KRas wild type + SOS: % inh.: with SOS; for KRas wild type: % inh.: without SOS
Summary of the method: as §1

[1] = test system: MiaPaca-2 (expressing KRAS G12C mutant); assay: Proliferation Assay (Cell Viability Assay); type: cell-based; details: Homo sapiens, MIA PaCa-2; read-out: Proliferation in MiaPaca-2: IC50
Summary of the method: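 After 2–4 days' exposure at 37 °C, 5% CO2 to a single 10 μM final concentration or a dilution series (IC50), percent proliferation inhibition was derived from CellTiter 96 Aqueous One viability readings. The medium contained 0.3% DMSO and 10% FBS. KRAS G12C MiaPaca-2 cells were plated at 2000–5000/well the day before.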

## COc1cc(Nc2nc(-c3ccccn3)nn3cc(-c4ccn(C(C)C)n4)c(C)c23)ncn1 [Compound 13, 6-(1-Isopropyl-1H-pyrazol-3-yl)-N-(6-methoxypyrimidin-4-yl)-5-methyl-2-(pyridin-2-yl)pyrrolo[2,1-f][1,2,4]triazin-4-amine]
KRas G12D mutant; 20 μM compound
  KRas G12D mutant + SOS: % inh.: 0 (0 = 0% inhibition)
  KRas G12D mutant: % inh.: A (A = 1-25% inhibition)
Rac-1
  inhibition at 20 µM: 0%
KRas wild type; 20 μM compound
  KRas wild type + SOS: % inh.: 0 (0 = 0% inhibition)
  KRas wild type: % inh.: A (A = 1-25% inhibition)
[1]
  IC50: 150 to 500 nM

## COc1cccc(-c2cn3nc(-c4nccn4C)nc(O)c3c2C)c1Cl [Compound 15, 6-(2-Chloro-3-methoxyphenyl)-5-methyl-2-(1-methyl-1H-imidazol-2-yl)pyrrolo[2,1-f][1,2,4]triazin-4-ol]
KRas G12D mutant; 20 μM compound
  KRas G12D mutant + SOS: % inh.: 0 (0 = 0% inhibition)
  KRas G12D mutant: % inh.: A (A = 1-25% inhibition)
Rac-1
  inhibition at 20 µM: 0%
KRas wild type; 20 μM compound
  KRas wild type + SOS: % inh.: A (A = 1-25% inhibition)
  KRas wild type: % inh.: A (A = 1-25% inhibition)
[1]
  IC50: > 1000 nM

## Cc1c(-c2ccn(C)n2)cn2nc(-c3nccn3C)nc(Nc3cc(OCCNC(=O)CCCC[C@H]4SC[C@H]5NC(=O)N[C@H]54)ccn3)c12 [Compound 186, N-(2-((2-((5-Methyl-2-(1-methyl-1H-imidazol-2-yl)-6-(1-methyl-1H-pyrazol-3-yl)pyrrolo[2,1-f][1,2,4]triazin-4-yl)amino)pyridin-4-yl)oxy)ethyl)-5-((3aR,4R,6aS)-2-oxohexahydro-1H-thieno[3,4-d]imidazol-4-yl)pentanamide]
KRas G12D mutant; 20 μM compound
  KRas G12D mutant + SOS: % inh.: D (D = 76-100% inhibition)
  KRas G12D mutant: % inh.: D (D = 76-100% inhibition)
Rac-1
  inhibition at 20 µM: 76 to 100%
KRas wild type; 20 μM compound
  KRas wild type + SOS: % inh.: D (D = 76-100% inhibition)
  KRas wild type: % inh.: D (D = 76-100% inhibition)
[1]
  IC50: > 1000 nM

## COc1ccnc(Oc2nc(-c3nccn3C)nn3cc(-c4ccn(C)n4)c(C)c23)c1 [Compound 220, 4-((4-Methoxypyridin-2-yl)oxy)-5-methyl-2-(1-methyl-1H-imidazol-2-yl)-6-(1-methyl-1H-pyrazol-3-yl)pyrrolo[2,1-f][1,2,4]triazine]
KRas G12D mutant; at 20 μM
  KRas G12D mutant + SOS: % inh.: A (A = 1-25% inhibition)
  KRas G12D mutant: % inh.: B (B = 26-49% inhibition)
Rac-1
  inhibition at 20 µM: 26 to 49%
KRas wild type; at 20 μM
  KRas wild type + SOS: % inh.: A (A = 1-25% inhibition)
  KRas wild type: % inh.: B (B = 26-49% inhibition)
[1]
  IC50: > 1000 nM

## Cc1c(-c2ccn(C)n2)cn2nc(-c3nccn3C)nc(Nc3ccc(OC(F)F)cn3)c12 [Compound 231, N-(5-(Difluorometh-oxy)pyridin-2-yl)-5-methyl-2-(1-methyl-1H-imidazol-2-yl)-6-(1-methyl-1H-pyrazol-3-yl)pyrrolo[2,1-f][1,2,4]triazin-4-amine]
KRas G12D mutant; at 20 μM
  KRas G12D mutant + SOS: % inh.: C (C = 50-75% inhibition)
  KRas G12D mutant: % inh.: C (C = 50-75% inhibition)
Rac-1
  inhibition at 20 µM: 76 to 100%
KRas wild type; at 20 μM
  KRas wild type + SOS: % inh.: B (B = 26-49% inhibition)
  KRas wild type: % inh.: B (B = 26-49% inhibition)
[1]
  IC50: < 150 nM

## COc1ccnc(Nc2nc(-c3nccn3CCN)nn3cc(-c4ccn(C)n4)c(C)c23)c1 [Compound 188, 2-(1-(2-Aminoethyl)-1H-imidazol-2-yl)-N-(4-methoxypyridin-2-yl)-5-methyl-6-(1-methyl-1H-pyrazol-3-yl)pyrrolo[2,1-f][1,2,4]triazin-4-amine]
KRas G12D mutant; at 20 μM
  KRas G12D mutant + SOS: % inh.: D (D = 76-100% inhibition)
  KRas G12D mutant: % inh.: D (D = 76-100% inhibition)
Rac-1
  inhibition at 20 µM: 76 to 100%
KRas wild type; at 20 μM
  KRas wild type + SOS: % inh.: D (D = 76-100% inhibition)
  KRas wild type: % inh.: D (D = 76-100% inhibition)
[1]
  IC50: > 1000 nM

## COc1cc(Nc2nc(-c3nccn3C)nn3cc(-c4ccn(C)n4)c(C)c23)ncc1F [Compound 237, N-(5-Fluoro-4-methoxypyridin-2-yl)-5-methyl-2-(1-methyl-1H-imidazol-2-yl)-6-(1-methyl-1H-pyrazol-3-yl)pyrrolo[2,1-f][1,2,4]triazin-4-amine]
KRas G12D mutant; at 20 μM
  KRas G12D mutant + SOS: % inh.: D (D = 76-100% inhibition)
  KRas G12D mutant: % inh.: D (D = 76-100% inhibition)
Rac-1
  inhibition at 20 µM: 76 to 100%
KRas wild type; at 20 μM
  KRas wild type + SOS: % inh.: D (D = 76-100% inhibition)
  KRas wild type: % inh.: D (D = 76-100% inhibition)
[1]
  IC50: < 150 nM

## COc1ccnc(Nc2nc(-c3nccn3C)nn3cc(-c4ccn(C)n4)c(C(=O)N4CCCC4)c23)c1 [Compound 178, (4-((4-Methoxypyridin-2-yl)amino)-2-(1-methyl-1H-imidazol-2-yl)-6-(1-methyl-1H-pyrazol-3-yl)pyrrolo[2,1-f][1,2,4]triazin-5-yl)(pyrrolidin-1-yl)methanone]
KRas G12D mutant; 20 μM compound
  KRas G12D mutant + SOS: % inh.: D (D = 76-100% inhibition)
  KRas G12D mutant: % inh.: D (D = 76-100% inhibition)
Rac-1
  inhibition at 20 µM: 76 to 100%
KRas wild type; 20 μM compound
  KRas wild type + SOS: % inh.: D (D = 76-100% inhibition)
  KRas wild type: % inh.: D (D = 76-100% inhibition)
[1]
  IC50: > 1000 nM

## COc1ccnc(Nc2nc(-c3nccn3C)nn3cc(-c4ccn(C)n4)c(C(=O)NCCN(C)C)c23)c1 [Compound 177, N-(2-(Dimethylamino)ethyl)-4-((4-methoxypyridin-2-yl)amino)-2-(1-methyl-1H-imidazol-2-yl)-6-(1-methyl-1H-pyrazol-3-yl)pyrrolo[2,1-f][1,2,4]triazine-5-carboxamide]
KRas G12D mutant; 20 μM compound
  KRas G12D mutant + SOS: % inh.: D (D = 76-100% inhibition)
  KRas G12D mutant: % inh.: C (C = 50-75% inhibition)
Rac-1
  inhibition at 20 µM: 76 to 100%
KRas wild type; 20 μM compound
  KRas wild type + SOS: % inh.: D (D = 76-100% inhibition)
  KRas wild type: % inh.: D (D = 76-100% inhibition)
[1]
  IC50: > 1000 nM

## COc1cc(Nc2nc(-c3nccn3C)nn3cc(-c4cccnc4)c(-c4cccnc4)c23)ncn1 [Compound 170, N-(6-Methoxypyrimidin-4-yl)-2-(1-methyl-1H-imidazol-2-yl)-5,6-di(pyridin-3-yl)pyrrolo[2,1-f][1,2,4]triazin-4-amine]
KRas G12D mutant; 20 μM compound
  KRas G12D mutant + SOS: % inh.: D (D = 76-100% inhibition)
  KRas G12D mutant: % inh.: D (D = 76-100% inhibition)
Rac-1
  inhibition at 20 µM: 76 to 100%
KRas wild type; 20 μM compound
  KRas wild type + SOS: % inh.: D (D = 76-100% inhibition)
  KRas wild type: % inh.: D (D = 76-100% inhibition)
[1]
  IC50: < 150 nM

## CO[C@H]1C[C@H](S(=O)(=O)Nc2nc(-c3nccn3C)nn3cc(-c4ccccc4)c(-c4ccccc4)c23)C1 [Compound 214, (1r,3r)-3-Methoxy-N-(2-(1-methyl-1H-imidazol-2-yl)-5,6-diphenylpyrrolo[2,1-f][1,2,4]triazin-4-yl)cyclobutane-1-sulfonamide]
KRas G12D mutant; at 20 μM
  KRas G12D mutant + SOS: % inh.: C (C = 50-75% inhibition)
  KRas G12D mutant: % inh.: C (C = 50-75% inhibition)
Rac-1
  inhibition at 20 µM: 50 to 75%
KRas wild type; at 20 μM
  KRas wild type + SOS: % inh.: C (C = 50-75% inhibition)
  KRas wild type: % inh.: C (C = 50-75% inhibition)
[1]
  IC50: > 1000 nM

## Cc1c(-c2ccn(C)n2)cn2nc(-c3nccn3C)nc(Nc3ccc(C(F)(F)F)cn3)c12 [Compound 233, 5-Methyl-2-(1-methyl-1H-imidazol-2-yl)-6-(1-methyl-1H-pyrazol-3-yl)-N-(5-(trifluoromethyl)pyridin-2-yl)pyrrolo[2,1-f][1,2,4]triazin-4-amine]
KRas G12D mutant; at 20 μM
  KRas G12D mutant + SOS: % inh.: D (D = 76-100% inhibition)
  KRas G12D mutant: % inh.: D (D = 76-100% inhibition)
Rac-1
  inhibition at 20 µM: 76 to 100%
KRas wild type; at 20 μM
  KRas wild type + SOS: % inh.: D (D = 76-100% inhibition)
  KRas wild type: % inh.: D (D = 76-100% inhibition)
[1]
  IC50: < 150 nM

## CO[C@@H]1C[C@H]1Nc1nc(-c2nccn2C)nn2cc(-c3ccncc3)c(-c3ccccc3)c12 (racemic) [Compound 197, rac N-((1R,2R)-2-methoxycyclopropyl)-2-(1-methyl-1H-imidazol-2-yl)-5-phenyl-6-(pyridin-4-yl)pyrrolo[2,1-f][1,2,4]triazin-4-amine]
KRas G12D mutant; at 20 μM
  KRas G12D mutant + SOS: % inh.: A (A = 1-25% inhibition)
  KRas G12D mutant: % inh.: A (A = 1-25% inhibition)
Rac-1
  inhibition at 20 µM: 1 to 25%
KRas wild type; at 20 μM
  KRas wild type + SOS: % inh.: A (A = 1-25% inhibition)
  KRas wild type: % inh.: 0 (0 = 0% inhibition)
[1]
  IC50: > 1000 nM

Reference: US12459951B2, “Compounds that interact with RAS superfamily proteins for treatment of cancers, inflammatory diseases, rasopathies, and fibrotic disease” (SHY Therapeutics, LLC, priority 2022, dated 2025)
